From paper PMC3766633 (Biomaterials, 2013)
Entries after “also recorded” stand apart in the source; their conditions may differ.

Columns and labels:
male Wistar rats [1] = assay: In situ ileal loop absorption experiment, hypoglycemic effect; conditions: 50 IU/kg
male Wistar rats [2] = assay: Subcutaneous injection, hypoglycemic effect; assay type: in vivo, rat; conditions: 1 IU/kg
[3] = Precipitation / aggregation on mixing with LMWP during coupling; assay type: physicochemical; conditions: mixing with LMWP or LMWP-SH during the coupling process, observation
[4] = cell culture and animal studies; cited from earlier work
dogs = conditions: dog, in vivo; cited from earlier work

With “Insulin-Polyethylene Glycol-Low Molecular Weight Protamine Conjugate [Insulin-PEG-LMWP]” the “drop of BGL soon after administration” value (male Wistar rats [1]) was 70%, the “Tmin (time to reach BGLmin)” value (male Wistar rats [1]; male Wistar rats, N=6) was 6 h and the “BGL level remaining after the minimum” value (male Wistar rats [1]; over a period of 10 hours, % of initial value) was 30–45%. For the same substance, the “BGL level maintained till the end of the study (10 h)” value (male Wistar rats [2]; s.c.) was “around 70%”, the “reduction of BGL two hours following subcutaneous injection” value (male Wistar rats [2]; s.c., 2 h) was “about 30%” and the “bioactivity of insulin after conjugation with LMWP” value (male Wistar rats [2]; s.c., compared with s.c. insulin) was “not to be impaired”. The “transporting efficiency, times higher than that of native insulin, basolateral-to-apical flux” value (Caco-2 cell monolayer; Caco-2) was 4.09 times, the “Peff (permeability coefficient), apical-to-basolateral” value (Caco-2 cell monolayer; Caco-2, pH 7.4) was 5.33±0.03 ×10^-6 cm/s and the “Peff (permeability coefficient), basolateral-to-apical” value (Caco-2 cell monolayer; Caco-2, pH 7.4) was 4.95±0.15 ×10^-6 cm/s.

With “Insulin-Polyethylene Glycol-Maleimide [Insulin-PEG-MAL]” the “appearance on mixing / reaction with LMWP (precipitation of insoluble complexes)” value [3] was “transparent reaction mixture”.

In the case of “VSRRRRRRGGRRRR [LMWP, Low Molecular Weight Protamine]”, the “cell internalization potency relative to TAT” value [4] is given as “equivalent”, the complement activation (dogs) is given as “only minor” and the hypotensive responses (dogs) is given as “non-detectable”.

With insulin the “hypoglycemic effect (decrease in BGL compared with PBS negative control)” value (male Wistar rats [1]; male Wistar rats) was “no statistically significant decrease; also recorded: virtually no hypoglycemic effects”, the “AAC0→10h (area above the curve)” value (male Wistar rats [1]; male Wistar rats, trapezoidal method, N=6) was 2751 %min and the “PA0→10h (relative pharmacological availability)” value (male Wistar rats [1]; relative to s.c. insulin 1 IU/kg, male Wistar rats, N=6) was 0.52%. For the same substance, the “time of return of BGL to the basal level (~100%)” value (male Wistar rats [2]; s.c.) was 6 h, the “BGLmin (minimum blood glucose level)” value (male Wistar rats [2]; sc., male Wistar rats, % of initial value, N=6) was 65.75% and the “Tmin (time to reach BGLmin)” value (male Wistar rats [2]; sc., male Wistar rats, N=6) was 1 h. The “AAC0→10h (area above the curve)” value (male Wistar rats [2]; sc., male Wistar rats, trapezoidal method, N=6) was 10547 %min, the “PA0→10h (relative pharmacological availability)” value (male Wistar rats [2]; sc., reference route, N=6) was 100.00% and the “appearance on mixing / reaction with LMWP (precipitation of insoluble complexes)” value [3] was “significant precipitation”.
